Assays:
[1] = target: T1, hP2X3 (Homo sapiens, UniProt P56373); experiment: Calcium uptake assay (Ca influx), P2X antagonist assay, P2X3 homomer; type: cell-based; settings: inhibition of agonist-induced calcium influx
T1 construct: expressed in transfected cells
T1 sequence (P56373 1-397): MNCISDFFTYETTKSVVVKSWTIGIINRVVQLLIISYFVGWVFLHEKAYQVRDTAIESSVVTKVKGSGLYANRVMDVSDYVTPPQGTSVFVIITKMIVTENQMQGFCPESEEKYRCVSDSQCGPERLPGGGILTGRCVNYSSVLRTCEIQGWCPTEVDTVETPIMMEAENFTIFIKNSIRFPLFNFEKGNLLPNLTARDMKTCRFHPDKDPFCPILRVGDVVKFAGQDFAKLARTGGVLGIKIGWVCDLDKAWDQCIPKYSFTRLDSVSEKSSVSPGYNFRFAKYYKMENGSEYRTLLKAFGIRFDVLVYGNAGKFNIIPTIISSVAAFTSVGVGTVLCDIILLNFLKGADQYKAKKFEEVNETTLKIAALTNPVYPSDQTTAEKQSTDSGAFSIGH
Description: (§1) Human P2X3 (Accession no. NM_002559), P2X2 (Accession no. NM_170682) and Rat P2X3 (Accession no. NM_031075) and P2X2 (Accession no. NM_053656) are cloned into a mammalian expression vector (e.g., pcDNAS/TO or pcDNA3 Invitrogen). The human P2X2/3 chimera clone is created as described by Neelands et al, and then cloned into an expression vector as above. Receptors are expressed in cells (e.g., HEK293 or 1321N1 (obtained from the ECACC)) via transient transfection using standard lipid mediated transfection, or by creation of stable transfectants for each receptor. For expression of the P2X2/3 heteromeric receptor, the P2X3 expression vector is stably transfected into a cell line already stably expressing P2X2. P2X2/3 heteromer function is isolated using pharmacological methods. Cell lines are maintained in DMEM+5% Glutamax, the appropriate level of selective antibiotic, and 10% heat inactivated FBS.
(§2) Functional activity of compounds at the P2X receptor is determined by measuring their ability to inhibit agonist-induced calcium influx. Compounds are tested for antagonist activity against the P2X2/3 chimera, the P2X3 homomer, or the P2X2/3 heteromer. At the start of each screening day, the agonist EC50 is determined. Compound % inhibition or IC50s are subsequently determined using a predetermined agonist concentration (EC50-90 depending on cell line) as a stimulus. The agonists used are αβMeATP, ATP, or other ATP analogs. Compounds may be tested at concentrations ranging from 1 pM to 10 μM.
(§3) To test for antagonist activity, cells expressing the appropriate receptor are seeded onto 96 or 384 well plates 18-24 hours prior to assay. On the day of the assay, cells are loaded with calcium-sensitive fluorescent dye (e.g., Fluo-4 no wash reagent-Invitrogen cat#F36206, or the BD™ PBX Calcium Assay Kit-BD cat #640175) in Hank's Buffered Salt Solution (HBSS) with up to 10 mM supplemental CaCl2. Plates are incubated at 37° C. and then equilibrated at room temperature. Antagonism of agonist-induced calcium influx is measured using a fluorescent imaging plate reader (e.g. FLIPR^TETRA, Molecular Devices, Sunnyvale, Calif.). The assay comprises two stages: a pre-treatment phase followed by a treatment phase. Compounds may be tested as follows: For the pre-treatment phase, 50 μL of 3× concentration of test compound in HBSS is added to cells containing 100 μL of dye loading media to achieve a final concentration of 1× test compound. For the treatment phase, at a set interval after pre-treatment (1-30 minutes), 50 μL of 1× test compound plus 4× agonist solution is added, resulting in a final concentration of 1× compound and 1× agonist. Fluorescence is measured at 0.1-3 second intervals—with an excitation wavelength of 494 nm and an emission wavelength of 515 nm. Responses are measured as (peak fluorescence after agonist addition) minus (baseline fluorescence prior to treatment). Percent inhibition is calculated as follows:
(§4) [formula] IC50 values are determined by analyzing dose response data in a 4 parameter logistic fit using GraphPad Prizm.
(§5) The following compounds have been or can be prepared according to the synthetic methods described herein. A calcium uptake assay was performed as described above and the activity of each compound is expressed as follows: […]

[2] = target: T2, hP2X2/3H (Homo sapiens, UniProt P56373+Q9UBL9); experiment: Calcium uptake assay (Ca influx), P2X antagonist assay, P2X2/3 heteromer; type: cell-based; settings: inhibition of agonist-induced calcium influx
T2 construct: expressed in transfected cells
T2 sequence (P56373 1-397): T1 sequence (P56373 1-397)
T2 sequence (Q9UBL9 1-471): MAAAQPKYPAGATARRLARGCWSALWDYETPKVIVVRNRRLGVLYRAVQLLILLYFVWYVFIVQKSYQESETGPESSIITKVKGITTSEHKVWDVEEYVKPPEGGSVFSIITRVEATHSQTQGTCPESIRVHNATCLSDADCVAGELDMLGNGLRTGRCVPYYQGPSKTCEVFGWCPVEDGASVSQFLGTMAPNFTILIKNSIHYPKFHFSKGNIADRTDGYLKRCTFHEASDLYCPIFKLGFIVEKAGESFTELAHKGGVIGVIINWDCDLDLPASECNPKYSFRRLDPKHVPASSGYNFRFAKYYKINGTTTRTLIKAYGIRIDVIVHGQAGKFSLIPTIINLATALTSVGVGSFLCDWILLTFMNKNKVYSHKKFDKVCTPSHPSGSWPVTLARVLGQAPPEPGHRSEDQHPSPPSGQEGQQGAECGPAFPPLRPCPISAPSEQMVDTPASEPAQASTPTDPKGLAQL
Description: as §1, §2, §3, §4, §5

SMILES | IC50 [1] [nM] | IC50 [2] [nM]
Cc1ccc(-c2cc(C(=O)NCc3cnc(C)nc3)cc(-c3ccc(C)cn3)c2)cc1 [Compound 1, 4′-Methyl-5-(5-methyl-pyridin-2-yl)-biphenyl-3-carboxylic acid (2-methyl-pyrimidin-5-ylmethyl)-amide] | 58.8 | 87.6
Cc1ccc(-c2cc(C(=O)NCc3cnc(C)nc3)cc(-c3ncccn3)c2)cc1 [Compound 2, 4′-Methyl-5-pyrimidin-2-yl-biphenyl-3-carboxylic acid (2-methyl-pyrimidin-5-ylmethyl)-amide] | 78.5 | 407
COc1ccccc1-c1cc(C(=O)NCc2ccc(C)nc2)cc(-c2ccc(C)cc2)c1 [Compound 4, 2″-Methoxy-4-methyl-[1,1′;3′,1″]terphenyl-5′-carboxylic acid (6-methyl-pyridin-3-ylmethyl)-amide] | 306 | 1060
Cc1ccc(-c2cc(C(=O)NCc3ccc(C)nc3)cc(-c3ccccc3F)c2)cc1 [Compound 6, 2″-Fluoro-4-methyl-[1,1′;3′,1″]terphenyl-5′-carboxylic acid (6-methyl-pyridin-3-ylmethyl)-amide] | 342 | 418
Cc1ccc(-c2cc(C(=O)NCc3ccc(C)nc3)cc(-c3ccccc3CO)c2)cc1 [Compound 8, 2″-Hydroxymethyl-4-methyl-[1,1′;3′,1″]terphenyl-5′-carboxylic acid (6-methyl-pyridin-3-ylmethyl)-amide] | 182 | 116
COc1ncc(-c2cc(C(=O)NCc3ccc(C)nc3)cc(-c3ccc(C)cc3)c2)cn1 [Compound 12, 5-(2-Methoxy-pyrimidin-5-yl)-4′-methyl-biphenyl-3-carboxylic acid (6-methyl-pyridin-3-ylmethyl)-amide] | 292 | 291
Cc1ccc(-c2cc(C(=O)NCc3ccc(C)nc3)cc(-c3ccccc3F)c2)nc1 [Compound 15, 2′-Fluoro-5-(5-methyl-pyridin-2-yl)-biphenyl-3-carboxylic acid (6-methyl-pyridin-3-ylmethyl)-amide] | 73.2 | 54.9
Cc1ccc(-c2cc(C(=O)NCc3ccc(C)nc3)cc(-c3ccc(C#N)cc3)c2)cc1 [Compound 24, 4″-Cyano-4-methyl-[1,1′;3′,1″]terphenyl-5′-carboxylic acid (6-methyl-pyridin-3-ylmethyl)-amide] | 626 | 
Cc1ccc(-c2cc(C(=O)N[C@@H](C)CO)cc(-c3c(C)cccc3C#N)c2)nc1 [Compound 72, 6′-Cyano-2′-methyl-5-(5-methyl-pyridin-2-yl)-biphenyl-3-carboxylic acid ((S)-2-hydroxy-1-methyl-ethyl)-amide] | 59.4 | 
Cc1ccc(-c2cc(C(=O)N[C@@H](C)CO)cc(-c3ccc(C#N)cc3C)c2)nc1 [Compound 76, 4′-Cyano-2′-methyl-5-(5-methyl-pyridin-2-yl)-biphenyl-3-carboxylic acid ((S)-2-hydroxy-1-methyl-ethyl)-amide] | 77.7 | 
Cc1ccc(-c2cc(C(=O)N[C@@H](C)CO)cc(-c3ccccc3CO)c2)nc1 [Compound 82, 2′-Hydroxymethyl-5-(5-methyl-pyridin-2-yl)-biphenyl-3-carboxylic acid ((S)-2-hydroxy-1-methyl-ethyl)-amide] | 33.2 | 
Cc1ccc(-c2cc(C(=O)N[C@@H](C)CO)cc(-c3ccccc3CO)c2)c(C#N)c1 [Compound 88, 2-Cyano-2″-hydroxymethyl-4-methyl-[1,1′;3′,1″]terphenyl-5′-carboxylic acid ((S)-2-hydroxy-1-methyl-ethyl)-amide] | 7.1 | 

Continued by falling IC50 [1], values first:

IC50 [1] [nM] | IC50 [2] [nM] | SMILES
2460 | 9200 | COc1ccc(-c2cc(C(=O)NCc3ccc(C)nc3)cc(-c3ccc(C)cc3)c2)cc1 [Compound 7, 4″-Methoxy-4-methyl-[1,1′;3′,1″]terphenyl-5′-carboxylic acid (6-methyl-pyridin-3-ylmethyl)-amide]
1960 | 8310 | Cc1ccc(-c2cc(C(=O)NCc3ccc(C)nc3)cc(-c3ccc(F)cc3F)c2)cc1 [Compound 5, 2″,4″-Difluoro-4-methyl-[1,1′;3′,1″]terphenyl-5′-carboxylic acid (6-methyl-pyridin-3-ylmethyl)-amide]
759 | 1270 | COc1ccc(-c2cc(C(=O)NCc3ccc(C)nc3)cc(-c3ccc(C)cc3)c2)cc1OC [Compound 10, 3″,4″-Dimethoxy-4-methyl-[1,1′;3′,1″]terphenyl-5′-carboxylic acid (6-methyl-pyridin-3-ylmethyl)-amide]
485 | 1060 | COc1cccc(-c2cc(C(=O)NCc3ccc(C)nc3)cc(-c3ccc(C)cc3)c2)c1 [Compound 11, 3″-Methoxy-4-methyl-[1,1′;3′,1″]terphenyl-5′-carboxylic acid (6-methyl-pyridin-3-ylmethyl)-amide]
484 | 415 | COc1ccc(-c2cc(C(=O)NCc3ccc(C)nc3)cc(-c3ccc(C)cc3)c2)c(OC)c1 [Compound 9, 2″,4″-Dimethoxy-4-methyl-[1,1′;3′,1″]terphenyl-5′-carboxylic acid (6-methyl-pyridin-3-ylmethyl)-amide]
318 | 172 | Cc1ccc(-c2cc(C(=O)NCc3ccc(C)nc3)cc(-c3ccccc3OC(F)(F)F)c2)nc1 [Compound 14, 5-(5-Methyl-pyridin-2-yl)-2′-trifluoromethoxy-biphenyl-3-carboxylic acid (6-methyl-pyridin-3-ylmethyl)-amide]
95.6 | 269 | COc1ncc(-c2cc(C(=O)NCc3ccc(C)nc3)cc(-c3ccc(C)cn3)c2)cn1 [Compound 16, 3-(2-Methoxy-pyrimidin-5-yl)-5-(5-methyl-pyridin-2-yl)-N-(6-methyl-pyridin-3-ylmethyl)-benzamide]
43.2 |  | Cc1ccc(-c2cc(C(=O)N[C@@H](C)CO)cc(-c3cccc(F)c3F)c2)nc1 [Compound 70, 2′,3′-Difluoro-5-(5-methyl-pyridin-2-yl)-biphenyl-3-carboxylic acid ((S)-2-hydroxy-1-methyl-ethyl)-amide]
21.6 | 24.5 | Cc1ccc(-c2cc(C(=O)NCc3ccc(C)nc3)cc(-c3ccccc3C#N)c2)nc1 [Compound 17, 2′-Cyano-5-(5-methyl-pyridin-2-yl)-biphenyl-3-carboxylic acid (6-methyl-pyridin-3-ylmethyl)-amide]
9 | 12.9 | Cc1ccc(-c2cc(C(=O)NCc3ccc(C)nc3)cc(-c3ccccc3CO)c2)nc1 [Compound 13, 2′-Hydroxymethyl-5-(5-methyl-pyridin-2-yl)-biphenyl-3-carboxylic acid (6-methyl-pyridin-3-ylmethyl)-amide]

From US9133122B2, “Amide compounds, compositions and uses thereof” (EVOTEC AG, priority 2008, dated 2015)
